Experiments:
OCI Ly10 model of DLBCL = test: Western blot of treated cells; format: cell-based; settings: 5 uM voruciclib, 50 nM venetoclax; 24 h
Experimental: Cell lines shown in Table 1, adherent or suspension, were treated in 6-well dishes or T10 flasks respectively, seeded at one million per ml density prior to treatment in total volumes of 3-10 ml. All agents used for in vitro cell treatments were formulated in water/DMSO to achieve required concentrations (as stated in respective figure labels/legends) with DMSO concentrations not exceeding 0.01%. Drug sources are indicated in table under ‘CIVO microinjection studies’. Cells were harvested at experimental time points: 2, 6, or 24 hours post treatment as indicated in respective figures, first by washing cells twice in ice-cold PBS in 15 ml falcon tubes, centrifugation at 1000 rpm for 5 mins followed by lysis of the respective cell pellets as described in section below. Note: Drug resistant NUDHL1 Dox 1000 nM and Toledo Dox 1000 nM cell lines were generated at Presage by culturing parental lines in media with stepwise increments in Doxorubicin concentration over several passages. […]
Protein lysates were prepared by adding ice-cold 1×RIPA Buffer (from 10×, Millipore) with 1×-3× Halt protease and phosphatase inhibitor cocktail (100×, Pierce) to cell pellets, followed by pulse sonication (˜3-5 secs) three times. […] Protein samples were quantified using Bradford assay (Biorad) at 1:10 or higher dilutions using appropriate blank controls with 1×RIPA. […]

MAK = MAK (Homo sapiens, UniProt P20794); test: Kinase inhibition profile
[1] = tested on: HCC1187 triple negative breast cancer (TNBC) xenograft model; test: CIVO microinjection, MCL-1 and CC3 staining; format: in vivo, mice; settings: marker of apoptosis
Experimental: (§1) Mice were enrolled into CIVO drug studies when the tumor volume reached approximately 1000 mm^3. Microinjection studies were performed using the CIVO device as previously described (Klinghoffer et al, Science Translational Medicine 2015) The device was configured with 6 injection needles set for a 6 mm injection length and a total volume delivery of 3 μl. A fluorescent tracking marker (FTM) was added to each drug reservoir in vehicle for delivery along with each drug or drug combination. All micro-doses were equivalent to or lower than what would be allowed under FDA guidelines for Exploratory IND (Investigational New Drug) studies and by solubility of drug into vehicle. Total amounts of agents injected are tabulated below in Table 4.
A drug screen was performed to test multiple drugs simultaneously.
FIG. 11 depicts a similar experiment performed on the HCC1187 triple negative breast cancer (TNBC) xenograft model. […] Cells were then stained for CC3 expression (shown in red) as a marker of apoptosis.
FIGS. 20A-20D depicts the HCC1187 triple negative breast cancer (TNBC) xenograft model. Briefly, cells were treated with vehicle, voruciclib alone, ixazomib alone, or voruciclib and ixazomib in combination. Cells were then stained for CC3 expression (shown in red) as a marker of apoptosis.

[2] = Body weight in HCC1187 TNBC mouse model; settings: in vivo
Experimental: Mice were enrolled for study when tumors reached an average volume of 150-200 mm^3. Tumor volume was calculated as V=length×width×height, all three dimensions measured using digital calipers along with body weight. Animals were removed from the study when—any one of the three measured dimensions of the tumor exceeding 2 cm, volume exceeding 2500 mm^3, ulceration or body weight loss greater than 20%.

38 different kinases = test: Comparison of inhibition profiles on 38 different kinases; format: biochemical; settings: compared with flavopiradol
NudHL1 DLBCL xenografts = test: CIVO microinjection, CC3 staining after 6 hours; format: in vivo, mice; settings: treated for 6 hours
Experimental: as §1, with “All micro-doses were equivalent to or lower than what would be allowed under FDA guidelines for Exploratory IND (Investigational New Drug) studies and by solubility of drug into vehicle.” left out
FIGS. 9A-9D depict cells that were treated as above and stained for cleaved caspase-3 (CC3) as a marker of apoptosis (shown in red).
FIGS. 10A-10D depict cells that were treated as above and stained for cleaved caspase-3 (CC3) as a marker of apoptosis (shown in red).

[3] = tested on: Ramos Burkitt's lymphoma cells; test: CIVO microinjection, cleaved caspase-3 staining; format: in vivo, mice; settings: marker of apoptosis
Experimental: as §1
FIGS. 5A-5D show Ramos Burkitt's lymphoma cells stained for cleaved caspase-3 (CC3) (shown in red) as a marker of apoptosis.

Sequence of MAK (P20794 whole entry): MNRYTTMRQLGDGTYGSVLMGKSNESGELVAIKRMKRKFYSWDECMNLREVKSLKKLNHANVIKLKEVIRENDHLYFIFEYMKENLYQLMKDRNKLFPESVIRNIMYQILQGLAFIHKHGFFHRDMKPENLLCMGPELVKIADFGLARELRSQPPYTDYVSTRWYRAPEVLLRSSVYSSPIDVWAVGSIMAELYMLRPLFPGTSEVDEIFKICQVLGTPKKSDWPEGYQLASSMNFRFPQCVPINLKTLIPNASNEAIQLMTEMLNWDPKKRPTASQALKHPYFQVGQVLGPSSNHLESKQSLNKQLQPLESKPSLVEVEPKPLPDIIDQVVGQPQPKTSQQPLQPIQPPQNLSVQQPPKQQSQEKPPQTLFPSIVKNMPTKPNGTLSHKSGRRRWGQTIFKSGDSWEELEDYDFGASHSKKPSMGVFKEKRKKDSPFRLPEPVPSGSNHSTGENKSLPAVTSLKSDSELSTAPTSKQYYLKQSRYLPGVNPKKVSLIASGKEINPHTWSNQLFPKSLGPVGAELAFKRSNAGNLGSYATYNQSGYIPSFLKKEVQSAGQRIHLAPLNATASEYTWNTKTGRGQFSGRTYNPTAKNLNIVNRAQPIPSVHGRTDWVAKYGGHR

Q: For `CN1CC[C@@H](c2c(O)cc(O)c3c(=O)cc(-c4ccc(C(F)(F)F)cc4Cl)oc23)[C@@H]1CO` (relative stereo) [voruciclib, (+)-trans-2-(2-Chloro-4-trifluoromethylphenyl)-5,7-dihydroxy-8-(2-hydroxymethyl-1-methylpyrrolidin-3-yl)-chromen-4-one], which “apoptosis (cleaved PARP)” value (OCI Ly10 model of DLBCL) is on record?
A: The value was “neither compound significantly induces apoptosis as a single agent”.

Q: What about the “inhibition of MAK” value (MAK) of the same molecule?
A: The value was “does not show potent inhibition”.

Q: What about the CC3 expression [1] of the same molecule?
A: Its CC3 expression is “little to no increase”.

Q: What about the “body weight of mice” value [2] of the same molecule?
A: The value was “unaffected”.

Q: And the “specificity for CDKs” value (38 different kinases)?
A: Its value is “more specific for CDKs than flavopiradol”.

Q: And the CC3 expression (NudHL1 DLBCL xenografts)?
A: The CC3 expression was “little to no increase”.

Q: And the “expression of CC3” value [3]?
A: Its value is “slight increase”.

From patent US12171744B2, “Pharmaceutical combinations for the treatment of cancer” (Presage Biosciences, Inc., priority 2016, dated 2024)
